Experimental findings from patent publication US12552753B2, “Methods and compositions for targeting Tregs using CCR8 inhibitors” (Nanjing Immunophage Biomedical Co., Ltd., priority 2020, dated 2026) are described below.

Counter-ions that a name gives are not always drawn. Where only a bound is given, the exact number is not on record here.

The experiment deals with CCR8 (Homo sapiens, UniProt P51685). The experiment can be described thus: Tango assay (Tango-CCR8-Gal4-CHO-K1 cells, CCL1-stimulated, ONE-Glo luminescence). Particulars: Tango Assay IC50, Inhibition of CCR8 Tango cell in vitro.
CCR8, sequence (P51685 whole entry, the tested form may be a part): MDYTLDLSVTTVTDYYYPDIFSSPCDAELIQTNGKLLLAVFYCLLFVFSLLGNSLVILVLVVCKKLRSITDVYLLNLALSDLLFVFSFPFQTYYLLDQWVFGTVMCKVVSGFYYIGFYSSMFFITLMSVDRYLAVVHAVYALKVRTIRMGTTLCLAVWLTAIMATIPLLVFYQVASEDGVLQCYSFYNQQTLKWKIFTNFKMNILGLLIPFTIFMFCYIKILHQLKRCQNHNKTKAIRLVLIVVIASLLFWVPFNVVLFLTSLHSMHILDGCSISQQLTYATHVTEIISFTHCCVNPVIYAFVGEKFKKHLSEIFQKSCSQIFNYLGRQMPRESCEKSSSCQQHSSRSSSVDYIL

Description: The Tango cell line was used to monitor antagonists-mediated receptor inactivation.
Tango cells (Tango-CCR8-Gal4-CHO-K1 cells constructed by Genomeditech) were passaged in complete medium (F12K, 10% FBS, 1% penicillin-streptomycin, 4 μg/ml puromycin, 4 μg/ml blasticidin and 100 μg/ml hygromycin) in incubator (37° C., 5% CO2).
Twenty-four hours before the seed, cells were cultured in 10 or 15 cm dish at a density of 30% confluence in culture medium (F12K, 10% FBS, 1% penicillin-streptomycin).
Cells were suspended in starving medium (F12K, 1% FBS, 1% penicillin-streptomycin) before being seeded into black/clear 96 wells (1×10^4 cells/70 μl/well) and incubated for 6 hours (37° C., 5% CO2). Different concentration of compound, dissolved in DMSO, was into the 96-well plates, with 50 μl in each well, and incubation continued for 1 hour at 37° C.
After the incubation, the medium was removed and the 96-well plate was put in −80° C. freezer for an hour or longer. The plate and the ONE-Glo reagent (Promega, Catalog Number: E6110) which was frozen in −80° C., were taken out and rewarmed to room temperature. The ONE-Glo working reagent was prepared by mixing ONE-Glo reagent with F12K (no FBS) (1:2), and 40 μl ONE-Glo working reagent was added into each well. After incubating for 10 minutes at room temperature, the plate was read using microplate luminescence reader at 560 nm.
The microplate reader records luminescence in relative luminescence units (RLU).

Consider `CC(NS(=O)(=O)c1ccc2cnccc2c1)C1CC2CCC1CC2` (stereo not drawn) [Compound 139, N-(1-(bicyclo[2.2.2]octan-2-yl)ethyl)isoquinoline-6-sulfonamide], for which the IC50 is > 10 µM. Consider `CC(NS(=O)(=O)c1cccc(C(=O)O)c1)C1CCCCC1` (stereo not drawn) [Compound 140, 3-(N-(1-cyclohexylethyl)sul-famoyl)benzoic acid], for which the IC50 is > 10 µM.

For the compound `CC(NS(=O)(=O)c1ccc(F)c(C(=O)O)c1)C1CCCCC1` (stereo not drawn) [Compound 141, 5-(N-(1-cyclohexylethyl)sul-famoyl)-2-fluorobenzoic acid], the IC50 was > 10 µM. As for `Cc1c(C(=O)O)cccc1S(=O)(=O)NC(C)C1CC2CCC1CC2` (stereo not drawn) [Compound 142, 3-(N-(1-(bicyclo[2.2.2]octan-2-yl)ethyl)sulfamoyl)-2-methylbenzoic acid], the figure is > 10 µM; as for `Cc1c(C(=O)O)cccc1S(=O)(=O)NC(C)C1CCCCC1` (stereo not drawn) [Compound 143, 3-(N-(1-cyclohexylethyl)sul-famoyl)-2-methylbenzoic acid], > 10 µM. The value for `CC(NS(=O)(=O)c1ccc2nc(Cc3ccccc3)[nH]c2c1)C1CCCCC1` (stereo not drawn) [Compound 144, 2-benzyl-N-(1-cyclohexylethyl)-1H-benzo[d]imidazole-6-sulfonamide] was 2.1 µM; that for `CC(NS(=O)(=O)c1ccc2nc(Nc3ccccc3)[nH]c2c1)C1CCCCC1` (stereo not drawn) [Compound 145, N-(1-cyclohexylethyl)-2-(phenylamino)-1H-benzo[d]imidazole-6-sulfonamide] was 0.87 µM; that for `CC(NS(=O)(=O)c1ccc(-c2[nH]nnc2-c2ccccc2)c2ccccc12)C1CCCCC1` (stereo not drawn) [Compound 148, N-(1-cyclohexylethyl)-4-(4-phenyl-1H-1,2,3-triazol-5-yl)naphthalene-1-sulfonamide] was 0.613 µM. Turning to `CC(NS(=O)(=O)c1ccc(-c2cc3ccccc3[nH]2)c2ccccc12)C1CCCCC1` (stereo not drawn) [Compound 149, N-(1-cyclohexylethyl)-4-(1H-indol-2-yl)naphthalene-1-sulfonamide], the IC50 is > 10 µM. In the case of `CC(NS(=O)(=O)c1ccc(-c2nn[nH]n2)c2ccccc12)C1CCCCC1` (stereo not drawn) [Compound 150, N-(1-cyclohexylethyl)-4-(2H-tetrazol-5-yl)naphthalene-1-sulfonamide], the 50% inhibitory concentration (IC50) is > 10 µM.

On to `CC(=O)Nc1ccccc1COc1ccc(S(=O)(=O)NC(C)C2CCCCC2)c2ccccc12` (stereo not drawn) [Compound 151, N-(2-(((4-(N-(1-cyclohexylethyl)sulfamoyl)naphthalen-1-yl)oxy)methyl)phenyl)acetamide], for which the IC50 was found to be 1.36 µM. As for `CC(NS(=O)(=O)c1cccc(N2CCCC2C(=O)O)c1)C1CCCCC1` (stereo not drawn) [Compound 152, 1-(3-(N-(1-cyclohexylethyl)sulfam-oyl)phenyl)pyrrolidine-2-carboxylic acid], the figure is > 10 µM; as for `CC(NS(=O)(=O)c1cccc(N2CCCCC2C(=O)O)c1)C1CCCCC1` (stereo not drawn) [Compound 153, 1-(3-(N-(1-cyclohexylethyl)sulfam-oyl)phenyl)piperidine-2-carboxylic acid], > 10 µM; as for `CC(NS(=O)(=O)c1cccc(N2CCC(C(=O)O)C2)c1)C1CCCCC1` (stereo not drawn) [Compound 154, 1-(3-(N-(1-cyclohexylethyl)sulfam-oyl)phenyl)pyrrolidine-3-carboxylic acid], > 10 µM.

Regarding `Cc1ccccc1C(=O)Nc1ccc(S(=O)(=O)NC(C)C2CCCN(C(=O)CNC(=O)OC(C)(C)C)C2)c2ccccc12` (stereo not drawn) [Compound 155D, tert-butyl (2-(3-(1-(4-(2-methylbenzamido)naph-thalene-1-sulfonamido)ethyl)piper-idin-1-yl)-2-oxoethyl)carbamate], the IC50 is > 10 µM. As to `Cc1ccccc1C(=O)Nc1ccc(S(=O)(=O)NC(C)C2CCCN(C(=O)CN(C)C)C2)c2ccccc12` (stereo not drawn) [Compound 159, N-(4-(N-(1-(1-(2-(dimethylamino)acetyl)piperidin-3-yl)ethyl)sulfamoyl)naph-thalen-1-yl)-2-methylbenzamide], the IC50 was > 10 µM.

Consider `Cc1cc(S(=O)(=O)N[C@H](C)C2CCN(C(=O)OC(C)(C)C)CC2)ccc1NC(=O)c1ccccc1C` [Compound 160, (R)-tert-butyl 4-(1-(3-methyl-4-(2-methylbenzamido)phen-ylsulfonamido)ethyl)piper-idine-1-carboxylate], for which the IC50 was > 10 µM. As for `Cc1cc(S(=O)(=O)N[C@H](C)C2CCNCC2)ccc1NC(=O)c1ccccc1C` [Compound 161A, (R)-2-methyl-N-(2-methyl-4-(N-(1-(piperidin-4-yl)ethyl)sulfamoyl)phen-yl)benzamide hydrochloride], the figure is 0.042 µM; as for `Cc1cc(S(=O)(=O)NC(C)C2CC3CCC2CC3)ccc1NC(=O)c1ccccc1C` (stereo not drawn) [Compound 162, N-(4-(N-(1-(bicyclo[2.2.2]octan-2-yl)ethyl)sulfamoyl)-2-methylphenyl)-2-methylbenzamide], 0.005 µM; as for `Cc1ccccc1C(=O)Nc1ccc(S(=O)(=O)NC(C)C2CC3CCC2CC3)c(C)c1` (stereo not drawn) [Compound 163, N-(4-(N-(1-(bicyclo[2.2.2]octan-2-yl)ethyl)sulfamoyl)-3-methylphenyl)-2-methylbenzamide], 0.086 µM. As for `Cc1ccccc1C(=O)Nc1ccc(S(=O)(=O)N[C@H](C)C2CCN(C(=O)OC(C)(C)C)CC2)cc1Cl` [Compound 164, (R)-tert-butyl 4-(1-(3-chloro-4-(2-methylbenzamido)phen-ylsulfonamido)ethyl)piper-idine-1-carboxylate], the IC50 is > 10 µM. The value for `Cc1ccccc1C(=O)Nc1ccc(S(=O)(=O)N[C@H](C)C2CCNCC2)cc1Cl` [Compound 165A, (R)-N-(2-chloro-4-(N-(1-(piperidin-4-yl)ethyl)sulfamoyl)phen-yl)-2-methylbenzamide hydrochloride] was 0.012 µM. The value for `Cc1cc(S(=O)(=O)N[C@H](C)C2CCNCC2)ccc1NC(=O)c1ccccc1` [Compound 166A, (R)-N-(2-methyl-4-(N-(1-(piperidin-4-yl)ethyl)sulfamoyl)phen-yl)benzamide hydrochloride] was 0.099 µM; that for `Cc1cc(S(=O)(=O)NC(C)C2CCNCC2)ccc1NC(=O)c1ccccc1C` (stereo not drawn) [Compound 167A, 2-methyl-N-(2-methyl-4-(N-(1-(piperidin-4-yl)ethyl)sulfamoyl)phen-yl)benzamide hydrochloride] was 0.046 µM. In the case of `Cc1cc(S(=O)(=O)N[C@H](C)C2CCN(C(=O)OC(C)(C)C)CC2)c(Cl)cc1NC(=O)c1ccccc1C` [Compound 168, (R)-tert-butyl 4-(1-(2-chloro-5-methyl-4-(2-methylbenzamido)phen-ylsulfonamido)ethyl)pi-peridine-1-carboxylate], 1.3 µM corresponded to half-maximal inhibition (IC50). As for `Cc1cc(S(=O)(=O)N[C@H](C)C2CCNCC2)c(Cl)cc1NC(=O)c1ccccc1C` [Compound 169A, (R)-N-(5-chloro-2-methyl-4-(N-(1-(piperidin-4-yl)ethyl)sulfamoyl)phen-yl)-2-methylbenzamide hydrochloride], the figure is 0.012 µM.

In turn, `Cc1cc(S(=O)(=O)NC(C)C2CC3CCC2CC3)c(C)cc1NC(=O)c1ccccc1C` (stereo not drawn) [Compound 170, N-(4-(N-(1-(bicyclo[2.2.2]octan-2-yl)ethyl)sulfamoyl)-2,5-dimethylphenyl)-2-methylbenzamide] yielded an IC50 of 0.0037 µM.
